Results from patent US8546593B2, “Methods and compositions for novel liquid crystal delivery systems” (Copperhead Chemical Company, Inc., priority 2009, dated 2013).
≈ marks a conversion by molar mass, not a printed value.

System: Staphylococcus aureus
Experiment: Minimum inhibitory concentration against Staphylococcus aureus
Assay type: cell-based
Conditions: read-out: minimum inhibitory concentration (MIC)

CCCCCCCCCCCC(=O)OCC(O)CO (stereo not shown) [glycerol monolaurate]
MIC: 55 µg/mL (≈ 200 µM)
